molecular target: T1, human GPR120 (Homo sapiens, UniProt Q5NUL3); assay: Human GPR120-β Arrestin 2 BRET agonist assay; type: cell-based; settings: HEK293T cells transiently co-expressing hGPR120-eYFP and β-arrestin 2-RLuc; BRET normalised to DMSO (0%) and TUG-891 (100%); read-out: hGPR120 pEC50 (converted)
T1 construct: expressed in transfected cells; host or cells: HEK293T, transient transfection with PEI
T1 sequence (Q5NUL3 1-361): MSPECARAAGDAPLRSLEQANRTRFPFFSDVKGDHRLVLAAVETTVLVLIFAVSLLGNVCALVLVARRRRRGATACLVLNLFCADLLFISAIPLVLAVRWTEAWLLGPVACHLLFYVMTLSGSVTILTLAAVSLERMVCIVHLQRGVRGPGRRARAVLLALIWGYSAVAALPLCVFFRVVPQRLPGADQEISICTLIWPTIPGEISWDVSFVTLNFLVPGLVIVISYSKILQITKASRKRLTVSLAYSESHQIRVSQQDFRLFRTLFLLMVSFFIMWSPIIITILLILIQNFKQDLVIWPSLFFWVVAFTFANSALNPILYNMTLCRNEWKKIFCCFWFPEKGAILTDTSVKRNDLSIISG
Protocol: pEC50 data was obtained by the following procedure:
Human GPR120-β Arrestin 2 Bio-Luminescence Resonance Energy Transfer (BRET) Agonist Assay Procedure
HEK293T cells were cultured in growth media composed of DMEM L-glutamine media supplemented with 10% (v:v) fetal bovine serum (FBS) and 1% (v:v) 10,000 units penicillin/10 mgml^−1 streptomycin at 37° C., 5% CO2. HEK293T cells transiently co-expressing human GPR120 […] and b-arrestin 2 were generated by transfection with plasmids encoding a construct of hGPR120 […] fused at its C terminal with enhanced yellow fluorescent protein (eYFP), and another encoding β-arrestin 2 fused to Renilla luciferase (RLuc), using Polyethylenimine (PEI) as the transfection reagent.
Transfected cells were cryopreserved in batches for consistency between replicate assays. Twenty-four hours post transfection, cells were harvested with non-enzymatic cell dissociation buffer and re-suspended in DMEM medium supplemented with 10% DMSO and 10% FBS before being transferred first to −80° C. overnight and then to liquid nitrogen for long-term storage. On the day prior to the assay, cells were thawed at 37° C. and re-suspended in growth media. A 96 well white opaque bottom microtitre plate was then seeded with 40,000 cells in a volume of 100 μl growth media per well and seeded plates were then incubated overnight at 37° C., 5% CO2. On the day of the BRET experiment, cells were washed twice with BRET assay buffer (Hanks balanced salt solution (HBSS) supplemented with 10 mM HEPES (pH 7.4)), then 80 μl per well of BRET assay buffer was added before the plate was incubated for 30 minutes at 37° C., 5% CO2. Then, Renilla luciferase substrate coelenterazine h (5 μM) was added to the cells and incubated at 37° C. for 10 minutes before the addition of GPR120 agonist (TUG-891) or test compound for a further 5 minutes at 37° C.
Bio-luminescence at λ 535 nm and λ 475 nm was then measured with a Pherastar FsX instrument, and the λ 535/λ 475 ratio of bio-luminescence was then used to calculate a BRET value. hGPR120 agonist potency values (pEC50) were calculated by normalising the BRET values to the DMSO vehicle (0% control) and TUG-891 (100% control) and then fitting the normalised data to a 3-parameter concentration-response curve.

Compound | EC50
N#Cc1ccc(N2CCc3cc(CCC(=O)O)ccc3C2)cc1 [Compound 17, 3-(2-(4-cyanophenyl)-1,2,3,4-tetrahydroisoquinolin-6-yl)propanoic acid] | 7940 nM
O=C(O)CCc1ccc2c(c1)CCN(c1cccc(OC3CCC3)c1)C2 [Compound 12, 3-(2-(3-cyclobutoxyphenyl)-1,2,3,4-tetrahydroisoquinolin-6-yl)propanoic acid] | 158 nM
O=C(O)C1CC1c1ccc2c(c1)CCN(c1cccc(Oc3ccccc3)c1)C2 (stereo not drawn) [Compound 38, 2-(2-(3-Phenoxyphenyl)-1,2,3,4-tetrahydroisoquinolin-6-yl)cyclopropanecarboxylic Acid] | 63.1 nM
CC1(C)Cc2cc(Cl)cc(N3CCc4cc(CCC(=O)O)ccc4C3)c2O1 [Compound 15, 3-(2-(5-chloro-2,2-dimethyl-2,3-dihydrobenzofuran-7-yl)-1,2,3,4-tetrahydroisoquinolin-6-yl)propanoic acid] | 631 nM
O=C(O)C1CC1c1ccc2c(c1)CCN(c1cc(OC(F)(F)F)ccc1F)C2 (stereo not drawn) [Compound 35, 2-(2-(2-fluoro-5-(trifluoromethoxy)phenyl)-1,2,3,4-tetrahydroisoquinolin-6-yl)cyclopropane-1-carboxylic acid] | 100 nM
O=C(O)C1CC1c1ccc2c(c1)CCN(c1cc(OC3CCC3)ccc1F)C2 (racemic) [Compound 34, 2-(2-(5-cyclobutoxy-2-fluorophenyl)-1,2,3,4-tetrahydroisoquinolin-6-yl)cyclopropanecarboxylic Acid] | 158 nM
O=C(O)CCc1ccc2c(c1)CCN(c1cc(OC3CCC3)cc(F)c1F)C2 [Compound 3, 3-(2-(5-cyclobutoxy-2,3-difluorophenyl)-1,2,3,4-tetrahydroisoquinolin-6-yl)propanoic acid] | 10 nM
O=C(O)C1CC1c1ccc2c(c1)CCN(c1cccc(Oc3ccccc3)c1)C2 (single isomer, unassigned) [38 isomer 2] | 39.8 nM
O=C(O)CCc1ccc2c(c1)CCN(c1cc(F)cc(OC3CCC3)c1)C2 [Compound 19, 3-(2-(3-cyclobutoxy-5-fluorophenyl)-1,2,3,4-tetrahydroisoquinolin-6-yl)propanoic acid] | 25.1 nM
N#Cc1ccc(OC(F)(F)F)cc1N1CCc2cc(CCC(=O)O)ccc2C1 [Compound 6, 3-(2-(2-cyano-5-(trifluoromethoxy)phenyl)-1,2,3,4-tetrahydroisoquinolin-6-yl)propanoic acid] | 79.4 nM
O=C(O)CCc1ccc2c(c1)CCN(c1nc(OC3CCC3)ccc1F)C2 [Compound 7, 3-(2-(6-cyclobutoxy-3-fluoropyridin-2-yl)-1,2,3,4-tetrahydroisoquinolin-6-yl)propanoic acid] | 15.8 nM
O=C(O)CCc1ccc2c(c1)CCN(c1cc(Cl)cc(OC3CCC3)c1)C2 [Compound 43, 3-(2-(3-chloro-5-cyclobutoxyphenyl)-1,2,3,4-tetrahydroisoquinolin-6-yl)propanoic acid] | 20 nM
O=C(O)C1CC1c1ccc2c(c1)CCN(c1cc(OC3CCC3)ccc1F)CC2 (stereo not drawn) [Compound 53] | 100 nM
O=C(O)CCc1ccc2c(c1)CCCN(c1cc(OC(F)(F)F)ccc1F)C2 [Compound 54, 3-(2-(2-Fluoro-5-(trifluoromethoxy)phenyl)-2,3,4,5-tetrahydro-1H-benzo[c]azepin-7-yl)propanoic Acid] | 200 nM
CO[C@H]1C[C@H](Oc2ccc(F)c(N3CCc4cc(CCC(=O)O)ccc4C3)c2)C1 [Compound 2, 3-(2-(2-fluoro-5-((1r,3r)-3-methoxycyclobutoxy)phenyl)-1,2,3,4-tetrahydroisoquinolin-6-yl)propanoic acid] | 158 nM
CC(Cc1ccc2c(c1)CCN(c1cc(OC3CCC3)ccc1F)C2)C(=O)O (racemic) [Compound 27, 3-(2-(5-cyclobutoxy-2-fluorophenyl)-1,2,3,4-tetrahydroisoquinolin-6-yl)-2-methylpropanoic acid] | 100 nM
O=C(O)CCc1ccc2c(c1)CCN(c1cc(Oc3ccccc3)ccc1F)C2 [Compound 9, 3-(2-(2-fluoro-5-phenoxyphenyl)-1,2,3,4-tetrahydroisoquinolin-6-yl)propanoic acid] | 20 nM

Compound | EC50
O=C(O)CCc1ccc2c(c1)CCN(c1cc(OC3CC3)ccc1F)CC2 [Compound 47, 3-(3-(5-cyclopropoxy-2-fluorophenyl)-2,3,4,5-tetrahydro-1H-benzo[d]azepin-7-yl)propanoic acid] | 158 nM
O=C(O)CCc1ccc2c(c1)CCN(c1cc(OC(F)(F)F)ccc1F)C2 [Compound 1, 3-(2-(2-Fluoro-5-(trifluoromethoxy)phenyl)-1,2,3,4-tetrahydroisoquinolin-6-yl)propanoic Acid] | 39.8 nM
O=C(O)C1CC1c1ccc2c(c1)CCN(c1cc(OC(F)(F)F)ccc1F)CC2 (stereo not drawn) [Compound 52, 2-(3-(2-fluoro-5-(trifluoromethoxy)phenyl)-2,3,4,5-tetrahydro-1H-benzo[d]azepin-7-yl)cyclopropanecarboxylic Acid] | 126 nM
O=C(O)C1CC1c1ccc2c(c1)CCN(c1cc(OC3CCC3)ccc1F)C2 (single isomer, unassigned) [34 isomer 1] | 158 nM
O=C(O)C1CC1c1ccc2c(c1)CCN(c1cc(OC3CCC3)ccc1F)C2 (single isomer, unassigned) [34 isomer 2] | 79.4 nM
O=C(O)CCc1ccc2c(c1)CCN(c1ccccc1Oc1ccccc1)C2 [Compound 4, 3-(2-(2-phenoxyphenyl)-1,2,3,4-tetrahydroisoquinolin-6-yl)propanoic acid] | 158 nM
O=C(O)CCc1ccc2c(c1)CCN(c1cc(OC3CCC3)ccc1Cl)C2 [Compound 11, 3-(2-(2-chloro-5-cyclobutoxyphenyl)-1,2,3,4-tetrahydroisoquinolin-6-yl)propanoic acid] | 50.1 nM
O=C(O)CCc1ccc2c(c1)CCN(c1cccnc1OC1CCC1)C2 [Compound 5, 3-(2-(2-cyclobutoxypyridin-3-yl)-1,2,3,4-tetrahydroisoquinolin-6-yl)propanoic acid] | 7940 nM
CC(C)Oc1cc(F)cc(N2CCc3ccc(CCC(=O)O)cc3CC2)c1 [Compound 49, 3-(3-(3-fluoro-5-isopropoxyphenyl)-2,3,4,5-tetrahydro-1H-benzo[d]azepin-7-yl)propanoic acid] | 398 nM
O=C(O)CCc1ccc2c(c1)CCN(c1cccc(OC(F)(F)F)n1)C2 [Compound 22, 3-(2-(6-(trifluoromethoxy)pyridin-2-yl)-1,2,3,4-tetrahydroisoquinolin-6-yl)propanoic acid] | 316 nM
Cc1cc(C)cc(N2CCc3ccc(CCC(=O)O)cc3C2)c1 [Compound 30, 3-(2-(3,5-dimethylphenyl)-1,2,3,4-tetrahydroisoquinolin-7-yl)propanoic Acid] | 1580 nM
COc1ccc(Cl)cc1N1CCc2cc(CCC(=O)O)ccc2C1 [Compound 29, 3-(2-(5-chloro-2-methoxyphenyl)-1,2,3,4-tetrahydroisoquinolin-6-yl)propanoic acid] | 1000 nM
O=C(O)CCc1ccc2c(c1)CCN(c1cccc(OC3CCC3)n1)C2 [Compound 21, 3-(2-(6-cyclobutoxypyridin-2-yl)-1,2,3,4-tetrahydroisoquinolin-6-yl)propanoic acid] | 39.8 nM
O=C(O)CCc1ccc2c(c1)CCN(c1ncc(F)c(OC3CCC3)n1)C2 [Compound 8, 3-(2-(4-cyclobutoxy-5-fluoropyrimidin-2-yl)-1,2,3,4-tetrahydroisoquinolin-6-yl)propanoic acid] | 63.1 nM
O=C(O)C1CC1c1ccc2c(c1)CCN(c1cc(OC3CCC3)cc(F)c1F)C2 (stereo not drawn) [Compound 36, 2-(2-(5-cyclobutoxy-2,3-difluorophenyl)-1,2,3,4-tetrahydroisoquinolin-6-yl)cyclopropane-1-carboxylic acid] | 100 nM
C[C@H](Cc1ccc2c(c1)CCN(c1cc(OC(F)(F)F)ccc1F)CC2)C(=O)O [Compound 51, (R)-3-(3-(2-fluoro-5-(trifluoromethoxy)phenyl)-2,3,4,5-tetrahydro-1H-benzo[d]azepin-7-yl)-2-methylpropanoic Acid] | 501 nM

From patent US11220483B2, “Tetrahydro-benzo[d]azepine derivatives as GPR120 modulators” (CALDAN THERAPEUTICS LIMITED, priority 2018, dated 2022)
